Reference: patent publication US10618901B2 (GlaxoSmithKline Intellectual Property Development Limited, priority 2014, dated 2020)

What follows are molecules tested against T1, LRRK2 Ser935 phosphorylation in SH-SY5Y cells over-expressing recombinant full length LRRK2 (Homo sapiens, UniProt Q5S007) (assay: Recombinant cellular LRRK2 AlphaScreen assay). Settings: read-out: pIC50 in the recombinant cellular LRRK2 alphaScreen assay (converted).
T1 construct: A BacMam virus expressing full length recombinant LRRK2 was purchased from Invitrogen; host or cells: SH-SY5Y (BacMam transduction)
Type: cell-based
Description: Recombinant Cellular LRRK2 AlphaScreen Assay
To determine the activity of compounds against LRRK2 kinase activity in cells, the observed LRRK2 kinase-dependent modulation of LRRK2 Ser 935 phosphorylation (Dzamko et al., 2010, Biochem. J. 430: 405-413) was utilized to develop a quantitative 384 well plate-based immunoassay of LRRK2 Ser935 phosphorylation in the human neuroblastoma cell line SH-SY5Y, engineered to over-express recombinant full length LRRK2 protein.
A BacMam virus expressing full length recombinant LRRK2 was purchased from Invitrogen and amplified by inoculation of SF-9 cells at MOI 0.3 for 4-5 days in Sf-900 III SFM medium supplemented with 3% fetal bovine serum. Infected cell cultures were then centrifuged at 2000 g for 20 minutes, viral supernatant titer determined by anti-gp64 plaque assay and stored at 4° C.
Affinity-purified anti-phospho LRRK2 Ser935 sheep polyclonal antibody (Dzamko et al., 2010, Biochem. J. 430: 405-413) was biotinylated by standard methods (PerkinElmer). Anti-LRRK2 rabbit polyclonal antibody was purchased from Novus Biologicals. AlphaScreen Protein A IgG Kit (including acceptor and donor beads) was purchased from Perkin Elmer.
SH-SY5Y cells were grown in DMEM/F12 medium with 10% dialysed fetal bovine serum and harvested by treatment with 0.5% trypsin-EDTA for 5 minutes at 37° C. followed by centrifugation at 1000 rpm for 4 minutes. The cell pellet was resuspended in Opti-MEM reduced serum media (Invitrogen) at 200,000 cells/ml and mixed with the BacMam LRRK2 virus at M01=50. 50 μl cell solutions were then dispensed to each well of a 384-well plate and incubated at 37° C., 5% CO2 for 24 hours.
Serial dilutions of test compounds were prepared in Opti-MEM reduced serum media (Invitrogen) and 5.6 ul transferred from compound plate to cell assay plate to achieve a top final assay concentration of 10 uM. DMSO was used in certain wells as controls. Cells were incubated at 37° C., 5% CO2 for 60 minutes. The medium was then removed and cells lysed by addition of 20 ul cell lysis buffer (Cell Signaling Technology) and incubation at 4° C. for 20 minutes. 10 ul of antibody/acceptor bead mix [(1/1000 biotinylated-pS935 LRRK2 antibody, 1/1000 total-LRRK2 antibody, 1/100 Acceptor beads in AlphaScreen detection buffer (25 mM Hepes (pH 7.4), 0.5% Triton X-100, 1 mg/ml Dextran 500 and 0.1% BSA)] was then added to each well and plates incubated for 2 hours at ambient temperature in the dark. 10 μl of donor beads solution (1/33.3 donor beads in AlphaScreen detection buffer) was then added to each well. Following incubation for a further 2 hours at ambient temperature in the dark, plates were read on an EnVision™ plate reader at emission 520-620 nm with excitation 680 nm. Dose response curve data was based on sigmoidal dose-response model.

T1 sequence (Q5S007 whole entry): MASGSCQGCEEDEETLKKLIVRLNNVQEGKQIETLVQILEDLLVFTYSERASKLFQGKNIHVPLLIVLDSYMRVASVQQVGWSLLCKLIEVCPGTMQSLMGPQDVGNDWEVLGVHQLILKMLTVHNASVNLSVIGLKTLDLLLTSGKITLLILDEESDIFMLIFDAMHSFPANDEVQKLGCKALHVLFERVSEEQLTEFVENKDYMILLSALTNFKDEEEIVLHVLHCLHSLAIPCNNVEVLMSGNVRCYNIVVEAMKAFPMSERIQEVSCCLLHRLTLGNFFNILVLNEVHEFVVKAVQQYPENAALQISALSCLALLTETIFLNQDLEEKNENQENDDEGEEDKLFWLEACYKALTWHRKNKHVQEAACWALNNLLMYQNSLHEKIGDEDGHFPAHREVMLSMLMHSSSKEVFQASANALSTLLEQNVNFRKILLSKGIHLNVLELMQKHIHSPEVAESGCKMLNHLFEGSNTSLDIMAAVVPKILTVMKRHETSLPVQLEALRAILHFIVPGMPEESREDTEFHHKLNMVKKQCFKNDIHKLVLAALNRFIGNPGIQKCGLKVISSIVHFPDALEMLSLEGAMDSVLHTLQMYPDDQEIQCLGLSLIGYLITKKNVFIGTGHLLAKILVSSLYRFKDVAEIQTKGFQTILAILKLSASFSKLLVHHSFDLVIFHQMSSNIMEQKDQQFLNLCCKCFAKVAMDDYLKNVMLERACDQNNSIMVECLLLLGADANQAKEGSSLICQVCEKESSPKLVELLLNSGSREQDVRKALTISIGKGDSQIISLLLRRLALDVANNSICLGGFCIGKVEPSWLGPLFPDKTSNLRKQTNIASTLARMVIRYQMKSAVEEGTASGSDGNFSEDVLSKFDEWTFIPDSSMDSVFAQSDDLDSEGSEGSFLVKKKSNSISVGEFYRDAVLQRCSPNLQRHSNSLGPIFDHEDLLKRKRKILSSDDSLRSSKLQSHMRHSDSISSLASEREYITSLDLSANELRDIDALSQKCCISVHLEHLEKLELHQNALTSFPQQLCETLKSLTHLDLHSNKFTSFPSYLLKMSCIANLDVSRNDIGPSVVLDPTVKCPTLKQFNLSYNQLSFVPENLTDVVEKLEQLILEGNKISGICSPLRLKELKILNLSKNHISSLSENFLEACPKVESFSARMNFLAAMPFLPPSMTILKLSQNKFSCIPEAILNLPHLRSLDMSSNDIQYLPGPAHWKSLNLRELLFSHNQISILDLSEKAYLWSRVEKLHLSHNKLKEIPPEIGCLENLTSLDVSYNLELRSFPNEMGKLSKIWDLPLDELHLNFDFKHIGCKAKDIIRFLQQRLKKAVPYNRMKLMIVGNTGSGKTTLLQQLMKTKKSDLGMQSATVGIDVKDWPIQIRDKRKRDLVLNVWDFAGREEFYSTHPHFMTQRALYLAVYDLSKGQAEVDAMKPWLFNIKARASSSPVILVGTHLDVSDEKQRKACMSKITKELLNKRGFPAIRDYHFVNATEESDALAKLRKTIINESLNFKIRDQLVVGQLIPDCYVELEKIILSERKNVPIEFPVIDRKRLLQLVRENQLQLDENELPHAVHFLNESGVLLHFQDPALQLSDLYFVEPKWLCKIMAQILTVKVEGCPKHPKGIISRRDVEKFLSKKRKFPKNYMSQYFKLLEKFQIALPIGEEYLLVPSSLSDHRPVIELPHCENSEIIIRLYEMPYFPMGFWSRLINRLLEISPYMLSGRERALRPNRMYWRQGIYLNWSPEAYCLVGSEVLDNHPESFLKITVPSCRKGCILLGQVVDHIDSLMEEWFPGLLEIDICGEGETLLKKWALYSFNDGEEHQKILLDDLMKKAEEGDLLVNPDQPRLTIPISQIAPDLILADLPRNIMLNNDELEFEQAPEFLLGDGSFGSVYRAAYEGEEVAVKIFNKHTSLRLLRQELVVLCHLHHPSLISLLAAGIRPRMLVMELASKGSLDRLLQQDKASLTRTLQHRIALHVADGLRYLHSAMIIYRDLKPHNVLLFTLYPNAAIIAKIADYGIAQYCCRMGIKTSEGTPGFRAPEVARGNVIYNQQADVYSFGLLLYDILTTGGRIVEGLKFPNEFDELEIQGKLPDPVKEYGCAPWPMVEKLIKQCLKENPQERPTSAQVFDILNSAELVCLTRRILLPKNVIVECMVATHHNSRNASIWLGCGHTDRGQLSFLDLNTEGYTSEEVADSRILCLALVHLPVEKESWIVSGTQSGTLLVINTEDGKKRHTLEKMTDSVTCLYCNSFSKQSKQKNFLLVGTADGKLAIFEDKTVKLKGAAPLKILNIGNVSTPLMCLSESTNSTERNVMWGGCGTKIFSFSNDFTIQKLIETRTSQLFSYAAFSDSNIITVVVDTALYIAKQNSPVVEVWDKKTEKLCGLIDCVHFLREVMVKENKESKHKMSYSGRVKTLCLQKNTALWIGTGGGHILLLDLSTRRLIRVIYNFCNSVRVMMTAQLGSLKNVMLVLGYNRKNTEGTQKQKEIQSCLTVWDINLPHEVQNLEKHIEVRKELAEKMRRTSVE

Row | SMILES | IC50
1 | CCOc1nc(Nc2cnn(C3CCOCC3)c2C)nc2[nH]ccc12 [Example E11, 4-ethoxy-N-(5-methyl-1-(tetrahydro-2H-pyran-4-yl)-1H-pyrazol-4-yl)-7H-pyrrolo-[2,3-d]-pyrimidin-2-amine] | ≤ 100 nM
2 | CCOc1nc(Nc2cnn(C3CCN(C4COC4)CC3(F)F)c2C)nc2[nH]ccc12 (single isomer, unassigned) [Example E131, N-(1-(3,3-difluoro-1-(oxetan-3-yl)piperidin-4-yl)-5-methyl-1H-pyrazol-4-yl)-4-ethoxy-7H-pyrrolo[2,3-d]pyrimidin-2-amine] | ≤ 100 nM
3 | CCOc1nc(Nc2cnn(CCOC)c2C)nc2[nH]ccc12 [Example E9, 4-ethoxy-N-(1-(2-methoxyethyl)-5-methyl-1H-pyrazol-4-yl)-7H-pyrrolo-[2,3-d]pyrimidin-2-amine] | ≤ 100 nM
4 | CCOc1nc(Nc2cnn(C3CCN(C)CC3)c2C)nc2[nH]ccc12 [Example E18, 4-ethoxy-N-(5-methyl-1-(1-methylpiperidin-4-yl)-1H-pyrazol-4-yl)-7H-pyrrolo-[2,3-d]-pyrimidin-2-amine] | ≤ 100 nM
5 | CCOc1nc(Nc2cnn([C@@H]3CCN(C)C3)c2C)nc2[nH]cc(C#N)c12 [Example E51, (R)-4-ethoxy-2-((5-methyl-1-(1-methyl-pyrrolidin-3-yl)-1H-pyrazol-4-yl)-amino)-7H-pyrrolo-[2,3-d]pyrimidine-5-carbonitrile] | ≤ 100 nM
6 | CCOc1nc(Nc2cnn([C@@H]3C[C@H](F)CN(C4COC4)C3)c2Cl)nc2[nH]ccc12 [Example E151, N-(5-chloro-1-((3R,5S)-5-fluoro-1-(oxetan-3-yl)piperidin-3-yl)-1H-pyrazol-4-yl)-4-ethoxy-7H-pyrrolo[2,3-d]pyrimidin-2-amine] | ≤ 100 nM
7 | CCOc1nc(Nc2cnn(C(C)(C)C#N)c2C)nc2[nH]ccc12 [Example E96, 2-(4-((4-ethoxy-7H-pyrrolo[2,3-d]pyrimidin-2-yl)amino)-5-methyl-1H-pyrazol-1-yl)-2-methylpropanenitrile] | ≤ 100 nM
8 | CCOc1nc(Nc2cnn(CC3COC3)c2C)nc2[nH]ccc12 [Example E29, 4-ethoxy-N-(5-methyl-1-(oxetan-3-yl-methyl)-1H-pyrazol-4-yl)-7H-pyrrolo-[2,3-d]pyrimidin-2-amine] | ≤ 100 nM
9 | CCOc1nc(Nc2cnn(CCF)c2C)nc2[nH]cc(C#N)c12 [Example E50, 4-ethoxy-2-((1-(2-fluoroethyl)-5-methyl-1H-pyrazol-4-yl)-amino)-7H-pyrrolo-[2,3-d]-pyrimidine-5-carbonitrile] | ≤ 100 nM
10 | CCOc1nc(Nc2cnn(C3CCN(C4COC4)C3)c2C)nc2[nH]ccc12 (centres unmarked) [Example E66, 4-Ethoxy-N-(5-methyl-1-(1-(oxetan-3-yl)pyrrolidin-3-yl)-1H-pyrazol-4-yl)-7H-pyrrolo[2,3-d]pyrimidin-2-amine] | ≤ 100 nM
11 | CCOc1nc(Nc2cnn(CC(C)(C)N3CCOCC3)c2C)nc2[nH]ccc12 [Example E88, 4-ethoxy-N-(5-methyl-1-(2-methyl-2-morpholinopropyl)-1H-pyrazol-4-yl)-7H-pyrrolo[2,3-d]pyrimidin-2-amine] | ≤ 100 nM
12 | CCOc1nc(Nc2cnn(C3CCN(C4COC4)CC3)c2C)nc2[nH]ccc12 [Example E53, 4-ethoxy-N-(5-methyl-1-(1-(oxetan-3-yl)-piperidin-4-yl)-1H-pyrazol-4-yl)-7H-pyrrolo-[2,3-d]-pyrimidin-2-amine] | ≤ 100 nM
13 | CCOc1nc(Nc2cnn(C3CN(C4COC4)CCO3)c2Cl)nc2[nH]ccc12 (racemic) [Example E140, (±)-N-(5-chloro-1-(4-(oxetan-3-yl)morpholin-2-yl)-1H-pyrazol-4-yl)-4-ethoxy-7H-pyrrolo [2,3-d]pyrimidin-2-amine] | ≤ 100 nM
14 | CCOc1nc(Nc2cnn(CCN3CC[C@@H](F)C3)c2C)nc2[nH]ccc12 [Example E63, (R)-4-ethoxy-N-(1-(2-(3-fluoropyrrolidin-1-yl)-ethyl)-5-methyl-1H-pyrazol-4-yl)-7H-pyrrolo[2,3-d]pyrimidin-2-amine] | ≤ 100 nM
15 | CCOc1nc(Nc2cnn(C)c2Cl)nc2[nH]ccc12 [Example E4, N-(5-chloro-1-methyl-1H-pyrazol-4-yl)-4-ethoxy-7H-pyrrolo-[2,3-d]-pyrimidin-2-amine] | ≤ 100 nM
16 | CCOc1nc(Nc2cnn(CCN3CC4CC4C3)c2C)nc2[nH]ccc12 (centres unmarked) [Example E10, N-(1-(2-(3-aza-bicyclo-[3.1.0]hexan-3-yl)ethyl)-5-methyl-1H-pyrazol-4-yl)-4-ethoxy-7H-pyrrolo-[2,3-d]pyrimidin-2-amine] | ≤ 100 nM
17 | CCOc1nc(Nc2cnn(C3CC(C)(O)C3)c2C)nc2[nH]ccc12 (centres unmarked) [Example E93, 3-(4-((4-ethoxy-7H-pyrrolo[2,3-d]pyrimidin-2-yl)amino)-5-methyl-1H-pyrazol-1-yl)-1-methylcyclobutanol] | ≤ 100 nM
18 | CCOc1nc(Nc2cn(CCOC)nc2C)nc2[nH]cc(C#N)c12 [Example E48, 4-ethoxy-2-((1-(2-methoxyethyl)-3-methyl-1H-pyrazol-4-yl)-amino)-7H-pyrrolo-[2,3-d]-pyrimidine-5-carbonitrile] | ≤ 100 nM
19 | CCOc1nc(Nc2cnn(C3CCN(C4COC4)CC3(C)F)c2C)nc2[nH]ccc12 (single isomer, unassigned) [Example E138, (4-ethoxy-7H-pyrrolo[2,3-d]pyrimidin-2-yl)-[1-(3-fluoro-3-methyl-1-oxetan-3-yl-piperidin-4-yl)-5-methyl-1H-pyrazol-4-yl]-amine] | ≤ 100 nM
20 | CCOc1nc(Nc2cnn(C3CNCCO3)c2Cl)nc2[nH]ccc12 (single isomer, unassigned) [Example E143, N-(5-chloro-1-(morpholin-2-yl)-1H-pyrazol-4-yl)-4-ethoxy-7H-pyrrolo[2,3-d]pyrimidin-2-amine] | ≤ 100 nM
21 | CCOc1nc(Nc2cnn(C3CCCC3O)c2C)nc2[nH]ccc12 (racemic) [Example E39, (±)-2-(4-((4-ethoxy-7H-pyrrolo[2,3-d]pyrimidin-2-yl)amino)-5-methyl-1H-pyrazol-1-yl)cyclopentanol] | ≤ 100 nM
22 | CCOc1nc(Nc2cnn(C3CN(C)CC3F)c2C)nc2[nH]ccc12 (single isomer, unassigned) [Example E59, 4-ethoxy-N-(1-(4-fluoro-1-methylpyrrolidin-3-yl)-5-methyl-1H-pyrazol-4-yl)-7H-pyrrolo-[2,3-d]pyrimidin-2-amine] | ≤ 100 nM
23 | CCOc1nc(Nc2cnn(CCOC)c2C)nc2[nH]cc(C#N)c12 [Example E47, 4-ethoxy-2-((1-(2-methoxyethyl)-5-methyl-1H-pyrazol-4-yl)-amino)-7H-pyrrolo-[2,3-d]-pyrimidine-5-carbonitrile] | ≤ 100 nM
24 | CCOc1nc(Nc2cnn(C3CCN(C4COC4)CC3(F)F)c2Cl)nc2[nH]ccc12 (single isomer, unassigned) [Example E133, N-(5-chloro-1-(3,3-difluoro-1-(oxetan-3-yl)piperidin-4-yl)-1H-pyrazol-4-yl)-4-ethoxy-7H-pyrrolo[2,3-d]pyrimidin-2-amine] | ≤ 100 nM
25 | CCOc1nc(Nc2cnn([C@@H]3CCO[C@H](C)C3)c2C)nc2[nH]ccc12 (single isomer, unassigned) [Example E42] | ≤ 100 nM
26 | CCOc1nc(Nc2cn(CCOC)nc2C)nc2[nH]ccc12 [Example E8, 4-ethoxy-N-(1-(2-methoxyethyl)-3-methyl-1H-pyrazol-4-yl)-7H-pyrrolo-[2,3-d]-pyrimidin-2-amine] | ≤ 100 nM
